Measurements reported in US20230159527A1, “COMPOUNDS AS BCL-2 INHIBITORS” (Fochon Pharmaceuticals, Ltd., priority 2020, published 2023).

The molecules below were run on Toledo cells (assay: Cell proliferation assay, Toledo cells (MTS, 72 h)). Settings: Homo sapiens, Toledo cells, MTS, read-out: Toledo IC50.
Format: cell-based
Description: MTS testing kit was purchased from Promega (Madison, Wis., USA). The RPMI-1640, Fetal bovine serum and Penicillin-Streptomycin were purchased from BI (Biological Industries, Beit Haemek, Israel). Dimethyl sulfoxide (DMSO) was purchased from Sigma (St. Louis, Mo., USA). Toledo (ATCC catalog #: CRL-2631) cells were cultured in RPMI-1640 supplemented with Penicillin-Streptomycin and 10% FBS.
To investigate whether a compound is able to inhibit the activity of BCL-2 in cells, a mechanism-based assay using Toledo lines was developed. In this assay, the inhibition of BCL-2 was reflected by the inhibition of cell proliferation of Toledo cells. Cells were plated into 96-well plates at the optimized cell density of 30000 cells/well. Plates were incubated at 37° C., with 5% CO2 for 4h. Compounds were serially diluted and added to the plates with the final concentrations of 10000, 3333.3, 1111.1, 370.4, 123.5, 41.2, 13.7, 4.6 and 1.5 nM. Plates were incubated at 37° C., with 5% CO2 for 72 h. 20 μl MTS was added into each well and the plates were incubated at 37° C., with 5% CO2 for exactly 2 h. The absorbance was measured by a microplate reader at 490 nm. IC50 was calculated using GraphPad Prism 5.0 software.

| Molecule | IC50 |
| --- | --- |
| COC(=O)N1CCN(C2CC3(CCN(c4ccc(C(=O)NS(=O)(=O)c5cc6c(c([N+](=O)[O-])c5)N[C@@H]([C@H]5CC[C@](C)(O)CC5)CO6)c(Oc5cnc6[nH]cc(F)c6c5)c4)CC3)C2)[C@H](c2ccccc2C(C)C)C1 (single isomer, unassigned) [Example D-144, methyl (R or S)-4-(7-(3-((3-fluoro-1H-pyrrolo [2,3-b]pyridin-5-yl)oxy)-4-((S)-3-((1r,4S)-4-hydroxy-4-methylcyclohexyl)-5-nitro-3,4-dihydro-2H-benzo[b][1,4]oxazin-7-yl)sulfonyl)carbamoyl)phenyl)-7-azaspiro[3.5] nonan-2-yl)-3-(2-isopropylphenyl) piperazine-1-carboxylate] | 1 nM |
| CC(C)c1ccccc1[C@@H]1CCCN1C1CC2(CCN(c3ccc(C(=O)NS(=O)(=O)c4cc5c(c([N+](=O)[O-])c4)N[C@H]([C@H]4CC[C@@H](O)CC4)CO5)c(Oc4cnc5[nH]cc(F)c5c4)c3)CC2)C1 (single isomer, unassigned) [Example D-43, 2-((3-fluoro-1H-pyrrolo[2,3-b]pyridin-5-yl)oxy)-N-(R)-3-((1s,4S)-4-hydroxycyclohexyl)-5-nitro-3,4-dihydro-2H-benzo[b][1,4]oxazin-7-yl)sulfonyl)-4-(2-((R or S)-2-(2-isopropylphenyl)pyrrolidin-1-yl)-7-azaspiro[3.5]nonan-7-yl)benzamide] | 1 nM |
| CC(C)c1ccccc1[C@@H]1CCCN1C1CC2(CCN(c3ccc(C(=O)NS(=O)(=O)c4cc5c(c([N+](=O)[O-])c4)N[C@@H](C4CCC(O)CC4)CO5)c(Oc4cnc5[nH]cc(F)c5c4)c3)CC2)C1 (single isomer, unassigned) [Example D-40, 2-((3-fluoro-1H-pyrrolo[2,3-b]pyridin-5-yl)oxy)-N-(((S)-3-((1s,4R)-4-hydroxycyclohexyl)-5-nitro-3,4-dihydro-2H-benzo[b][1,4]oxazin-7-yl)sulfonyl)-4-(2-((R or S)-2-(2-isopropylphenyl)pyrrolidin-1-yl)-7-azaspiro[3.5]nonan-7-yl)benzamide] | 1 nM |
| COc1nc2[nH]ccc2cc1Oc1cc(N2CCC3(CC2)CN([C@H]2CCC[C@H]2c2ccccc2C(C)C)C3)ccc1C(=O)NS(=O)(=O)c1cnc(NC[C@H]2CC[C@](C)(O)CC2)c([N+](=O)[O-])c1 (single isomer, unassigned) [Example A-160, N-((6-(((1r,4r)-4-hydroxy-4-methyl-cyclohexyl)methyl)amino)-5-nitro-pyridin-3-yl)sulfonyl)-4-(2-((1S,2S or 1R,2R)-2-(2-isopropylphenyl)cyclo-pentyl)-2,7-diazaspiro[3.5]nonan-7-yl)-2-((6-methoxy-1H-pyrrolo[2,3-b]pyridin-5-yl)oxy)benzamide] | 1 nM |
| CC(C)c1ccccc1[C@@H]1CCC[C@@H]1N1CC2(CCN(c3ccc(C(=O)NS(=O)(=O)c4ccc(NC[C@H]5CC[C@](C)(O)CC5)c([N+](=O)[O-])c4)c(Oc4cc5cc[nH]c5nc4OC4COC4)c3)CC2)C1 (single isomer, unassigned) [Example D-115, N-((4-((((1r,4r)-4-hydroxy-4-methylcyclohexyl)methyl)amino)-3-nitrophenyl)sulfonyl)-4-(2-((1S,2S or 1R,2R)-2-(2-isopropylphenyl)cyclopentyl)-2,7-diazaspiro[3.5]nonan-7-yl)-2-((6-(oxetan-3-yloxy)-1H-pyrrolo[2,3-b]pyridin-5-yl)oxy) benzamide] | 1 nM |
| COCCOc1nc2[nH]ccc2cc1Oc1cc(N2CCC3(CC2)CC(N2CCC[C@H]2c2ccccc2C(C)C)C3)ccc1C(=O)NS(=O)(=O)c1cc2c(c([N+](=O)[O-])c1)N[C@@H](C[C@H]1CC[C@](C)(O)CC1)CO2 (single isomer, unassigned) [Example D-21, N-(((S)-3-(((1r,4S)-4-hydroxy-4-methylcyclohexyl)methyl)-5-nitro-3,4-dihydro-2H-benzo[b][1,4]oxazin-7-yl)sulfonyl)-4-(2-((R or S)-2-(2-isopropylphenyl)pyrrolidin-1-yl)-7-azaspiro[3.5]nonan-7-yl)-2-((6-(2-methoxyethoxy)-1H-pyrrolo[2,3-b]pyridin-5-yl)oxy) benzamide] | 1 nM |
| CC(C)c1ccccc1[C@@H]1CCC[C@@H]1N1CC2(CCN(c3ccc(C(=O)NS(=O)(=O)c4cc5c(c([N+](=O)[O-])c4)N[C@@H]([C@H]4CC[C@](C)(O)CC4)CO5)c(Oc4cc5cc[nH]c5nc4OC4COC4)c3)CC2)C1 (single isomer, unassigned) [Example D-108, N-(((S)-3-((1r,4S)-4-hydroxy-4-methylcyclohexyl)-5-nitro-3,4-dihydro-2H-benzo[b][1,4]oxazin-7-yl)sulfonyl)-4-(2-((1S,2S or 1R,2R)-2-(2-isopropylphenyl)cyclopentyl)-2,7-diazaspiro[3.5]nonan-7-yl)-2-((6-(oxetan-3-yloxy)-1H-pyrrolo[2,3-b]pyridin-5-yl)oxy) benzamide] | 1 nM |
| CC(C)c1ccccc1[C@@H]1CCC[C@@H]1N1CC2(CCN(c3ccc(C(=O)NS(=O)(=O)c4ccc(NC[C@H]5CC[C@](C)(O)CC5)c([N+](=O)[O-])c4)c(Oc4cc5cc[nH]c5nc4OC[C@@H]4COCCO4)c3)CC2)C1 (single isomer, unassigned) [Example D-236, 2-((6-(((S)-1,4-dioxan-2-yl)methoxy)-1H-pyrrolo[2,3-b]pyridin-5-yl)oxy)-N-((4-(((1r,4r)-4-hydroxy-4-methylcyclohexyl)methyl)amino)-3-nitrophenyl)sulfonyl)-4-(2-((1S,2S or 1R,2R)-2-(2-isopropylphenyl)cyclopentyl)-2,7-diazaspiro[3.5]nonan-7-yl)benzamide] | 1 nM |
| CC(C)c1ccccc1[C@@H]1COCCN1C1CC2(CCN(c3ccc(C(=O)NS(=O)(=O)c4cc5c(c([N+](=O)[O-])c4)N[C@@H]([C@H]4CC[C@](C)(O)CC4)CO5)c(Oc4cnc5[nH]cc(F)c5c4)c3)CC2)C1 (single isomer, unassigned) [Example D-1, 2-((3-fluoro-1H-pyrrolo[2,3-b]pyridin-5-yl)oxy)-N-(((S)-3-((1r,4S)-4-hydroxy-4-methylcyclohexyl)-5-nitro-3,4-dihydro-2H-benzo[b] [1,4]oxazin-7-yl)sulfonyl)-4-(2-((R or S)-3-(2-isopropylphenyl)morpholino)-7-azaspiro[3.5]nonan-7-yl) benzamide] | 1 nM |
| CC(C)c1ccccc1[C@@H]1CCCN1C1CC2(CCN(c3ccc(C(=O)NS(=O)(=O)c4cc5c(c([N+](=O)[O-])c4)N[C@@H]([C@H]4CC[C@](C)(O)CC4)CO5)c(Oc4cc5cc[nH]c5nc4OC[C@@H](C)O)c3)CC2)C1 (single isomer, unassigned) [Example D-69, N-(((S)-3-((1r,4S)-4-hydroxy-4-methylcyclohexyl)-5-nitro-3,4-dihydro-2H-benzo[b][1,4]oxazin-7-yl)sulfonyl)-2-((6-((7)-2-hydroxypropoxy)-1H-pyrrolo[2,3-b]pyridin-5-yl)oxy)-4-(2-((R or S)-2-(2-isopropylphenyl)pyrrolidin-1-yl)-7-azaspiro[3.5]nonan-7-yl)benzamide] | 1 nM |
| CC(C)c1ccccc1C1CCCN1C1CC2(CCN(c3ccc(C(=O)NS(=O)(=O)c4cc5c(c([N+](=O)[O-])c4)N[C@@H](C4CCC(F)(F)CC4)CO5)c(Oc4cnc5[nH]cc(F)c5c4)c3)CC2)C1 (single isomer, unassigned) [Example D-47, N-(((S)-3-(4,4-difluorocyclohexyl)-5-nitro-3,4-dihydro-2H-benzo [b][1,4]oxazin-7-yl)sulfonyl)-2-((3-fluoro-1H-pyrrolo[2,3-b]pyridin-5-yl)oxy)-4-(2-((R or S)-2-(2-isopropylphenyl)pyrrolidin-1-yl)-7-azaspiro[3.5]nonan-7-yl)benzamide] | 1 nM |

Same assay, conditions: Homo sapiens, Toledo, read-out: Toledo IC50 (nM)

| Molecule | IC50 |
| --- | --- |
| CC(C)c1ccccc1[C@@H]1COCCN1C1CC2(CCN(c3ccc(C(=O)NS(=O)(=O)c4ccc(NC[C@H]5CC[C@](C)(O)CC5)c([N+](=O)[O-])n4)c(Oc4cnc5[nH]ccc5c4)c3)CC2)C1 (single isomer, unassigned) [Example C-1, 2-((1H-pyrrolo[2,3-b]pyridin-5-yl)oxy)-N-((5-((((1r,4r)-4-hydroxy-4-methylcyclohexyl)methyl)amino)-6-nitropyridin-2-yl)sulfonyl)-4-(2-((R or S)-3-(2-isopropylphenyl)morpholino)-7-azaspiro[3.5]nonan-7-yl) benzamide] | 1 nM |
| CC(C)c1ccccc1[C@@H]1COCCN1C1CC2(CCN(c3ccc(C(=O)NS(=O)(=O)c4cc5c(c([N+](=O)[O-])c4)N[C@@H]([C@H]4CC[C@](C)(O)CC4)CO5)c(Oc4cnc5[nH]cc(Br)c5c4)c3)CC2)C1 (single isomer, unassigned) [Example D-3, 2-((3-bromo-1H-pyrrolo[2,3-b]pyridin-5-yl)oxy)-N-((S)-3-((1r,4S)-4-hydroxy-4-methylcyclohexyl)-5-nitro-3,4-dihydro-2H-benzo [b][1,4]oxazin-7-yl)sulfonyl)-4-(2-((R or S)-3-(2-isopropylphenyl)morpholino)-7-azaspiro[3.5]nonan-7-yl) benzamide] | 1 nM |

Same assay, conditions: Toledo cells, MTS, read-out: Toledo IC50

| Molecule | IC50 |
| --- | --- |
| N-(((S)-3-((1r,4S)-4-hydroxy-4- methylcyclohexyl)-5-nitro-3,4- dihydro-2H-benzo[b][1,4]oxazin-7- yl)sulfonyl)-4-(2-((R or S)- 2-(2-isopropylphenyl)pyrrolidin- 1-yl)-7-azaspiro[3.5]nonan-7- yl)-2-((6-(((R)-tetrahydrofuran-3- yl)oxy)-1H-pyrrolo[2,3-b]pyridin- 5-yl)oxy)benzamide [Example D-73] | 1 nM |
